Test results: patent US20090253706A1, “Methods and Compositions for the Treatment of Rheumatoid Arthritis and Other Inflammatory Diseases” (priority 2008, published 2009)

How the values were obtained:
Type in all cases: in vivo
[1] = tested on: anti-GPI antibody secreting cells; experiment: Anti-GPI antibody secreting cells in spleen and lymph nodes of treated K/BxN mice; settings: FIG. 2B; spleen, draining lymph nodes (dLN), non-draining lymph nodes (non-dLN), vs carrier alone
From the text: (§1) FIG. 2A is a graph of the titer of serum anti-glucose-6-phosphate isomerase (GPI) IgM and IgG isotypes from K/BxN mice treated with 1-methyl-tryptophan or carrier alone. FIG. 2B is a graph of the number of anti-GPI secreting cells per 10^5 cells present in the spleen, draining lymph nodes (dLN), and non-draining lymph nodes (non-dLN) of K/BxN mice treated with 1-methyl-tryptophan or carrier alone.
(§2) K/BxN mice produce arthritogenic Abs directed against GPI, which develop at high titers because of the preferential help that B cells expressing GPI-specific immunoglobulins receive from GPI-reactive T cells displaying the transgene-encoded TCR.

[2] = tested on: anti-glucose-6-phosphate isomerase (GPI) Ig; experiment: Serum anti-GPI Ig titer in treated K/BxN mice; settings: FIG. 2A; IgM and IgG isotypes, vs carrier alone
From the text: as §1, §2

[3] = tested on: K/BxN mice; experiment: Arthritis prevention in K/BxN mice, treatment from weaning, rear ankle thickness
From the text: K/BxN TCR transgenic mice express a TCR reactive to a self-peptide derived from the glucose-6-phosphate isomerase (GPI), presented by the MHC class II molecule A^g7 (Korganow et al. (1999) Immunity, 10:451-461; Kouskoff et al. (1996) Cell, 87:811-822; Matsumoto et al. (1999) Science, 286:1732-1735). K/BxN mice spontaneously develop a very aggressive form of arthritis at 3 to 4 weeks of age. […] The arthritis experienced by K/BxN mice is joint specific and allows for the scoring of the arthritis by caliper measurement of ankle thickness (Korganow et al. (1999) Immunity, 10:451-461; Ji et al. (2001) J. Exp. Med., 194:321-330).
Starting at weaning (21 days of age) K/BxN mice were administered 400 mg/kg of 1-methyl-D-tryptophan, 400 mg/kg of 1-methyl-L-tryptophan, or carrier alone b.i.d. (twice daily) by p.o. (oral) gavage.
Mice were given 400 mg/kg/dose (100 μl total volume) of D/L-1MT or D-1MT diluted in METHOCEL™/Tween® (0.5% Tween 80, 0.5% methylcellulose (v/v in water) twice daily by oral gavage (p.o.) using a curved feeding needle as described (Muller et al. (2005) Nat. Med., 11:312-319). 1MT was administered on a b.i.d. schedule, once in the morning and once in the evening. Methotrexate (MTX) was diluted in 0.5% carboxymethyl cellulose and administered by oral gavage at a range of doses 1-25 mg/kg/dose (0.1 cc/20 g mouse) using a curved feeding needle. The mice were given one dose per week as described (Asanuma et al. (2002) Eur. J. Pharmacol., 435:253-258). Control mice were given an equal volume of carrier alone (METHOCEL™/Tween®).
For the arthritis prevention experiments, MTX and/or 1MT treatment was started on the day of weaning (age 21 days). For the treatment of established arthritis, MTX and/or 1MT was administered after the mice had measurable arthritis.
The two rear ankles of MTX, 1MT, MTX+1 MT, or carrier-treated K/BxN mice were measured starting at weaning (3 wk of age) as described (Mandik-Nayak et al. (2002) Proc. Natl. Acad. Sci., 99:14368-14373). Measurement of ankle thickness was made above the footpad axially across the ankle joint using a Fowler Metric Pocket Thickness Gauge.

[4] = Example 1, FIG. 1, 400 mg/kg b.i.d. p.o. from 21 days of age, vs carrier alone
[5] = Example 2, FIG. 3, 400 mg/kg p.o. b.i.d. from 21 days, n=5
[6] = FIG. 4, MTX 1, 10 or 25 mg/kg weekly p.o. from 3 weeks of age, increasing amounts

Row | Compound | degree of arthritis (mean ankle thickness) [3, 4] | onset of arthritis [3, 4] | degree of arthritis (mean ankle thickness) [3, 5] | onset of arthritis [3, 5] | also measured
1 | Cn1cc(C[C@H](N)C(=O)O)c2ccccc21 (racemic) [1-MT, 1-methyl-tryptophan] | – | – | – | – | numbers of anti-GPI antibody secreting cells [1]: reduced numbers of anti-GPI antibody secreting cells; levels of serum anti-GPI Ig [2]: reduced levels of serum anti-GPI Ig
2 | Cn1cc(C[C@@H](N)C(=O)O)c2ccccc21 [1-methyl-D-tryptophan] | greatly reduced the degree of arthritis | delayed the onset of arthritis | reduced the degree of arthritis | delayed the onset of arthritis | arthritis development ([3]; FIG. 3 legend, 400 mg/kg p.o. b.i.d. from 21 days): inhibits arthritis development
3 | Cn1cc(CC(N)C(=O)O)c2ccccc21 [1-methyl-D/L-tryptophan] | – | – | reduced the degree of arthritis | delayed the onset of arthritis | –
4 | Cn1cc(C[C@H](N)C(=O)O)c2ccccc21 [1-methyl-L-tryptophan] | greatly reduced the degree of arthritis | delayed the onset of arthritis | – | – | –
5 | CN(Cc1cnc2nc(N)nc(N)c2n1)c1ccc(C(=O)N[C@@H](CCC(=O)O)C(=O)O)cc1 [MTX, methotrexate] | – | – | – | – | degree of arthritis [3, 6]: reduced the degree of arthritis; onset of arthritis [3, 6]: inhibited the onset of arthritis; arthritis development ([3]; FIG. 4 legend, MTX 1, 10 or 25 mg/kg weekly p.o. from 3 weeks of age): dose-dependent inhibition of arthritis development
